# Starred links: 1 amine or outer side, 2 acyl side, 3 side chain; linkers in the order of their positions; H or OH if unused. Residues, ends and D or L forms follow the SMILES beside them. *: point of attachment. pNA = O=[N+]([O-])c1ccc(N*)cc1; Suc = O=C(CCC(=O)[*:2])[*:1]
# How the values were obtained:
# [1] = tested on: Par17Δ61–156; assay: NMR titration of substrate peptides to 15N-labeled N-terminus of Par17; format: binding, human; conditions: 15N-BEST-TROSY-HSQC, 50 mM KPi pH 6.7, 20°C; protein 0.3 mM, substrate 3 mM
# Description: To elucidate the physical nature of the chemical shift changes in Par17 upon the addition of selected substrate peptides, we investigated whether the isolated N‐terminus of Par17 (Par17Δ61–156) is also capable of binding various substrates on its own. […] This indicates the existence of an independent binding epitope located within the N‐terminus.
# In the next step, we studied if this binding epitope is selectively interacting with peptides carrying Xaa‐Pro motifs. We already knew from former studies that model peptides carrying alanine instead of proline in the Xaa position are capable of binding to the hydrophobic catalytic center without being catalyzed.
# For NMR measurements, purified and concentrated proteins in salt‐free buffers were mixed with 10% D2O and 1 μL DSS standard. Spectra were measured on an ultra shield 700‐NMR (Bruker, Billerica, US) with a triple resonance cryoprobe (700 MHz). For recording and processing of data, the software Topspin 3.5 was used. Analysis of spectra was carried out using Cara analysis software 2.3.1 (Rochus L.J. Keller) and/or CcpNmr Analysis 2.3.1 (Department of Molecular and Cell Biology, University of Leicester, UK). […]
# They were added stepwise to 200 μL of the labeled parvulins (300 μM in 50 mM KPi buffer pH 6.7). Spectra were recorded with the pulse program Best‐TROSY at 20°C. Combined chemical shifts were calculated as described. […]
# [2] = target: T1, Par17 (Homo sapiens, UniProt Q9Y237); assay: Protease-coupled isomerase assay (PPIase assay) with Par17; format: biochemical; conditions: α-chymotrypsin 35 μM, PBS pH 6.8, 10°C, substrate 75 μM, PPIase 2 μM, absorbance 390 nm; mean ± SD
# T1 construct: full‐length Par17 and the N‐terminus of Par17; GST-His6 (PreScission site) (N, cleaved yes); Gly-Pro remnant of the PreScission site (Gly stands at position 1 in place of Met1); made in house; host or cells: E. coli BL21 (DE3) T1r
# Protocol: (§1) To determine the catalytic efficiency and substrate specificity of Par14 and Par17, we performed a protease‐coupled assay. In this assay, the trans form of a para‐nitroaniline (pNA) tagged model substrate is cleaved by chymotrypsin, and the resulting change in absorption at 390 nm due to free pNA is measured. When the model substrate is added to the protease‐containing buffer, all trans‐Xaa‐Pro isomers are immediately cleaved by chymotrypsin. Therefore, the extent of the first signal burst observed in the absorption spectrum correlates with the amount of trans isomers of the model substrate formed during the experimental dead time. The remaining cis‐Xaa substrates now start to isomerize by thermal (in the absence of PPIase) or catalytic reaction (in the presence of PPIase). The newly formed trans‐Xaa substrates are immediately cleaved, and isomerization can thus be monitored over time (Figure 2). Eighteen different substrate peptides with varying amino acids at the Xaa position (Suc‐Ala‐Xaa‐Pro‐Phe‐pNa) were measured to determine the isomerase activity and substrate selectivity of Par14 (Par17Δ1–25), Par17, and the catalytic domain (Par17Δ1–60) (Table S1). The catalytic efficiency is obtained from the observed isomerization curves by calculating the difference between the rate constant in the presence of enzyme and the rate constant obtained from thermal isomerization.
# (§2) We determined the isomerase activity using the PPIase assay described by. The lyophilized peptides were dissolved in an adequate volume of 0.5 mM‐LiCl/TFE buffer to obtain a 15 mM stock solution. To achieve a stable cis/trans ratio the mixture was incubated overnight at 4°C. The next day a stock solution of 350 μM α‐chymotrypsin in PBS was incubated on ice for at least 20 min. For measurements without PPIase PBS buffer (pH 6.8) was mixed with α‐chymotrypsin to a final concentration of 35 μM in 1 mL. A baseline was recorded for 5 min (Cary 100Bio UV/Vis spectrophotometer, Varian/Agilent, Santa Clara, US, λ: 390 nm, bandwidth: 1.0 nm, average time between measurements: 0.5 s, temperature: 10°C). After 5 min the substrate peptide was added to a final concentration of 75 μM in 1 mL [59]. The solution was mixed by inverting the cuvette three times and the reaction was recorded for 15 min. Measurements in the presence of PPIase were performed in the same way, except that before the baseline measurement, the appropriate isomerase was added in a final concentration of 2 μM in 1 mL in addition to PBS and α‐chymotrypsin.
# (§3) For the data analysis, a mean value of the baseline was subtracted (average of the first 200 data points). The measured values were normalized according to the respective maximum of the measurement. To determine the rate constant, the program graph pad was used, and non‐linear curve fitting was applied for each measurement (exponential, one‐phase association). (1) Y=Y0+Plateau−Y0∙1−e^−K∙x
# (§4) where x is the time (min), Y is the absorbance, Y 0 is the absorbance when x = 0, Plateau is the Y value at infinite times, K is the rate constant (min^−1).
# (§5) The K cat/K M value was calculated according to Equation (2): (2) kcat/KM=kobs−ktherm/PPIase where k cat/K M is the catalytic efficiency (M^−1 s^−1), k obs, rate constant of the observed reaction (s^−1), k therm is the rate constant of the thermic reaction (s^−1), and [PPIase] is the concentration of PPIase used in the assay (M).
# (§6) The obtained data are fitted to Equation (2) using a pseudo first‐order assumption. This is the case, if k obs values behave linearly with rising PPIase concentrations.
# [3] = target: T2, Par14 (Par17Δ1-25) (Homo sapiens, UniProt Q9Y237); assay: Protease-coupled isomerase assay (PPIase assay) with Par14; format: biochemical; conditions: α-chymotrypsin 35 μM, PBS pH 6.8, 10°C, substrate 75 μM, PPIase 2 μM, absorbance 390 nm; mean ± SD
# T2 construct: Comparison of spectra of full‐length parvulin proteins and PPIase domain; GST-His6 (PreScission site) (N, cleaved yes); made in house; host or cells: E. coli BL21 (DE3) T1r
# Protocol: as §1, §2, §3, §4, §5, §6
# [4] = target: T3, PPIase domain (Par17Δ1-60) (Homo sapiens, UniProt Q9Y237); assay: Protease-coupled isomerase assay (PPIase assay) with the catalytic domain; format: biochemical; conditions: α-chymotrypsin 35 μM, PBS pH 6.8, 10°C, substrate 75 μM, PPIase 2 μM, absorbance 390 nm; mean ± SD
# T3 construct: GST-His6 (PreScission site) (N, cleaved yes); made in house; host or cells: E. coli BL21 (DE3) T1r
# Protocol: as §1, §2, §3, §4, §5, §6
# [5] = target: T1, Par17; assay: NMR titration of substrate peptides to 15N-labeled full-length Par17; format: binding; conditions: 300 μM Par17, KPi pH 6.7, 20°C
# Protocol: The amide signals were assigned and combined chemical shift changes between the signals of free and substrate‐bound isomers were calculated.
# For NMR measurements, purified and concentrated proteins in salt‐free buffers were mixed with 10% D2O and 1 μL DSS standard. Spectra were measured on an ultra shield 700‐NMR (Bruker, Billerica, US) with a triple resonance cryoprobe (700 MHz). For recording and processing of data, the software Topspin 3.5 was used. Analysis of spectra was carried out using Cara analysis software 2.3.1 (Rochus L.J. Keller) and/or CcpNmr Analysis 2.3.1 (Department of Molecular and Cell Biology, University of Leicester, UK).
# Titration of substrate peptides to ^ 15 N‐labeled full‐length Par17 and the N‐terminus of Par17: The following substrate peptides were diluted in salt‐free 50 mM KPi buffer pH 6.7 to a concentration of 15 mM (Suc: Succinyl, pNA: para‐Nitroanilin):
# They were added stepwise to 200 μL of the labeled parvulins (300 μM in 50 mM KPi buffer pH 6.7). Spectra were recorded with the pulse program Best‐TROSY at 20°C. Combined chemical shifts were calculated as described. Microscopic dissociation constant K D was fitted with the following equation (assuming a 1:1 binding model): (4) ∆δ=∆δmax·P+x+KD−P+x+KD^2−4·x·P/2·P
# where ∆δmax is the amplitude, P is the protein concentration, X is the concentration of the peptide.
# Differences in chemical shift changes could be measured up to 0.001 ppm (error in peak picking). Changes were interpreted as significant if Δ > 0.004 ppm and when appearing consecutively in a linear sequence element.
# The microscopic K D describes the binding affinity of the ligand to a single side of an amino acid.
# T1 sequence (Q9Y237 1-156 isoform Q9Y237-2): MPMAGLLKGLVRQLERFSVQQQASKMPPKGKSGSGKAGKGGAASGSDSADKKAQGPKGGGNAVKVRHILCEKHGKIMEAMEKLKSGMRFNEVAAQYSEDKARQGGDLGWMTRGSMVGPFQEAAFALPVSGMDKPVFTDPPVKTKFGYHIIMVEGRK
# T3 sequence (Q9Y237 36-131, stated change not applied): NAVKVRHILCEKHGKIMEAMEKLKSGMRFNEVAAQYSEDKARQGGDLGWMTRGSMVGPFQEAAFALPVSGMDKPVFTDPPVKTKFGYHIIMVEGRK
# T2 sequence (Q9Y237 whole entry, stated change not applied, the tested form may be a part): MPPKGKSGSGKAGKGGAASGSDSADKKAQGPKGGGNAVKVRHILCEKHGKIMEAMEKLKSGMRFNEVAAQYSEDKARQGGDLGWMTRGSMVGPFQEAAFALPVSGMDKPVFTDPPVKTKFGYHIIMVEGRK
Molecule,binding to the N-terminal epitope of Par17 [1],"k = kobserved - kthermic, Par17 [2]","k = kobserved - kthermic, Par14 (Par17Δ1-25) [3]","k = kobserved - kthermic, PPIase domain (Par17Δ1-60) [4]","Combined chemical shift perturbation of full length Par17, 113G ([5]; peptide 0,35 mM)","Combined chemical shift perturbation of full length Par17, 116V ([5]; peptide 0,35 mM)","Combined chemical shift perturbation of full length Par17, 119F ([5]; peptide 0,35 mM)","Combined chemical shift perturbation of full length Par17, 113G ([5]; peptide 3 mM)","Combined chemical shift perturbation of full length Par17, 115M ([5]; peptide 3 mM)","Combined chemical shift perturbation of full length Par17, 116V ([5]; peptide 3 mM)","Combined chemical shift perturbation of full length Par17, 119F ([5]; peptide 3 mM)","Combined chemical shift perturbation of full length Par17, 113G ([5]; peptide 5 mM)","Combined chemical shift perturbation of full length Par17, 115M ([5]; peptide 5 mM)","Combined chemical shift perturbation of full length Par17, 116V ([5]; peptide 5 mM)","Combined chemical shift perturbation of full length Par17, 119F ([5]; peptide 5 mM)","Combined chemical shift perturbation of full length Par17, 113G ([5]; peptide 1,5 mM)","Combined chemical shift perturbation of full length Par17, 115M ([5]; peptide 1,5 mM)","Combined chemical shift perturbation of full length Par17, 116V ([5]; peptide 1,5 mM)","Combined chemical shift perturbation of full length Par17, 119F ([5]; peptide 1,5 mM)","Combined chemical shift perturbation of full length Par17, 115M ([5]; peptide 0,35 mM)"
Suc–Ala–Glu–Ala–Phe–pNA [proline-free model peptide carrying alanine instead of proline],interact with the N‐terminal epitope,,,,,,,,,,,,,,,,,,,
"C[C@H](NC(=O)CCC(=O)O)C(=O)NCC(=O)N1CCC[C@H]1C(=O)N[C@@H](Cc1ccccc1)C(=O)Nc1ccc([N+](=O)[O-])cc1 [Gly, Suc‐Ala‐Gly‐Pro‐Phe‐pNa] (Suc-AGPF-pNA)",,<0.01 ± 0.029 min⁻¹,0.390 ± 0.457 min⁻¹,0.275 ± 0.214 min⁻¹,"0,014 ppm","0,038 ppm","0,012 ppm","0,116 ppm","0,06 ppm","0,302 ppm","0,084 ppm","0,157 ppm","0,081 ppm","0,412 ppm","0,113 ppm","0,066 ppm","0,035 ppm","0,173 ppm","0,05 ppm",
"CC(C)[C@H](NC(=O)[C@H](C)NC(=O)CCC(=O)O)C(=O)N1CCC[C@H]1C(=O)N[C@@H](Cc1ccccc1)C(=O)Nc1ccc([N+](=O)[O-])cc1 [Val, Suc‐Ala‐Val‐Pro‐Phe‐pNa] (Suc-AVPF-pNA)",,0.011 ± 0.005 min⁻¹,0.408 ± 0.432 min⁻¹,0.289 ± 0.166 min⁻¹,"0,024 ppm","0,049 ppm","0,022 ppm","0,157 ppm","0,084 ppm","0,326 ppm","0,125 ppm","0,221 ppm","0,11 ppm","0,454 ppm","0,167 ppm","0,099 ppm","0,055 ppm","0,201 ppm","0,08 ppm","0,015 ppm"

# Reference: paper PMC12314576, “The Actin‐Binding Prolyl‐Isomerase Par17 Sustains Its Substrate Selectivity by Interdomain Allostery” (Proteins, 2025)
